Test results as given in ChEMBL document CHEMBL5608181, “Discovery of indazole inhibitors for heat shock protein 90 as anti-cancer agents” (Eur J Med Chem, 2024).
Each block holds one compound with its values, some of them ahead of it. Active and inactive are the calls of the source. The rule behind the calls is not given here.

Assays:
Homo sapiens = species on record: Homo sapiens; experiment: Inhibition of N-terminal HSP90 (unknown origin) at 10 uM by AlphaLISA assay
BT-474 [1] = experiment: Antiproliferative activity against human BT-474 cells assessed as inhibition of cell viability at 10 uM measured after 72 hrs by CellTiter 96 Aqueous One Solution Cell Proliferation Assay relative to control; type: functional
HEK293 = experiment: Cytotoxicity against HEK293 cells assessed as reduction in cell viability at 10 uM measured after 72 hrs by CellTiter 96 Aqueous One Solution Cell Proliferation Assay; type: toxicity, cell-based; details: human, hek293, 72 h
JIMT-1 = experiment: Antiproliferative activity against human JIMT-1 cells assessed as inhibition of cell viability at 10 uM measured after 72 hrs by CellTiter 96 Aqueous One Solution Cell Proliferation Assay; type: functional, cell-based
BT-474 [2] = experiment: Antiproliferative activity against human BT-474 cells assessed as inhibition of cell viability at 10 uM measured after 72 hrs by CellTiter 96 Aqueous One Solution Cell Proliferation Assay; type: functional, cell-based

inhibition (Homo sapiens): inactive
Structure (SMILES): CO[C@@H]1[C@@H](OC(N)=O)[C@@H](O)[C@H](Oc2ccc3c(O)c(NC(=O)c4ccc(O)c(CC=C(C)C)c4)c(=O)oc3c2C)OC1(C)C

Structure (SMILES): COCCCn1nc(NC(=O)c2ccc3c(c2OC)C=CC(C)(C)O3)c2ccccc21
inhibition at 10 µM (BT-474 [1]): > 50%

Structure (SMILES): COCCn1cc(NC(=O)c2ccc3c(c2OC)C=CC(C)(C)O3)c2cccnc21
Activity (HEK293): Toxic
Activity (JIMT-1): Active
Activity (BT-474 [2]): Active
